According to publication PMC8229129, “Local Colonic Administration of a Serine Protease Inhibitor Improves Post-Inflammatory Visceral Hypersensitivity in Rats” (Pharmaceutics, 2021):

Key:
[1] = Plasma concentrations after intracolonic administration (LC-MS/MS); format: in vivo, Sprague–Dawley rats; conditions: rat; for Plasma concentration: intracolonic 5 mg/kg
Description: To evaluate the pharmacokinetic properties of UAMC-00050, it was administered in male Sprague–Dawley rats (200–225 g) either colonically (5 mg/kg, in a volume of 200 µL 5% DMSO solution) or intravenously (1 mg/kg in a volume of 200 µL 5% DMSO solution). Plasma samples were collected after 5, 15, 30, 45, 60, 90, 120, and 180 min via the tail vein and stored at −80 °C until analysis.
Sample preparation and analysis of plasma samples consisted of protein precipitation followed by direct injection in a liquid chromatography–tandem mass spectrometry (LC-MS/MS) instrument. Briefly, 100 µL of plasma was spiked with 20 µL of nordazepam-D5 used as internal standard for quantification (yielding in a final concentration of 485 ng/mL) and afterwards 180 µL of acetonitrile was added to precipitate proteins. Subsequently, the samples were vortexed for 2.5 min at 2000× g and centrifuged for 5 min at 10,000× g. In a next step, 100 µL of the supernatant was transferred to a 0.20 µm centrifugal filter to remove remaining particles. After centrifugation for 5 min at 10,000× g, the remaining filtrate was transferred to an autosampler vial ready to be analyzed with LC-MS/MS. A seven-level point calibration curve with final concentrations ranging between 5 and 1000 ng/mL and a curve weighting factor of 1/x^2 was prepared in blank mouse plasma using different working solution standards of UAMC-00050 and a fixed amount of internal standard. The lower limit of quantification of the method was 5 ng/mL.
A gradient was applied as follows: 0–0.5 min: 5% B; 0.5–10 min 5–100% B; 10–12 min 100% B; and 12–12.1 min 5% B. The total run time was 18 min and the injection volume was set to 5 µL. Detection and quantification of UAMC-00050 were performed with an Agilent 6410 triple quadrupole MS system with an electrospray interface (ESI) operating in positive ionization mode. The following source parameters were applied: gas temperature 350 °C, gas flow 10 L/min, nebulizer 35 psi, and capillary voltage 4000 V. Compound-dependent MS parameters are summarized in Table 1. The most abundant transition of UAMC-00050 was used as quantifier and the other transitions were used for confirmation (qualifiers). For compound confirmation, the following criteria were used: the quantifier/qualifier ratio should fall within ±15% of the ratio observed in calibrators and the relative retention time should fall within 2.5% of the values observed in the calibrators.

[2] = test system: inflammatory parameters; set-up: method as in PMID 29911328; conditions: post-inflammatory model, intraperitoneal treatment; cited from earlier work
[3] = test system: visceral hypersensitivity in post-colitis rats; assay: Visceromotor response (VMR) to colorectal distensions, TNBS-induced post-colitis rat model for visceral hypersensitivity; format: in vivo, Sprague–Dawley rats
Description: A well-characterized 2,4,6-trinitrobenzene sulfonic acid (TNBS)-induced post-colitis rat model for visceral hypersensitivity was used in this study. Details on the procedures are given in subsequent paragraphs. After acclimation, an enema containing TNBS was used to induce a mild colitis, whereas control rats received an enema containing saline. The presence and severity of acute colitis were scored colonoscopically 3 days later. Subsequently, a colonoscopy was performed starting from day 10 and repeated every 4 days until complete mucosal healing was observed. Then, electromyographic (EMG) electrodes were implanted in the abdominal musculature of the rat and exteriorized at the scapular region. Three days later, the serine protease inhibitor UAMC-00050 or its vehicle was given intracolonically. Thirty minutes after the single administration of the drug, visceral sensitivity to colorectal distensions and colonic compliance were evaluated. Finally, animals were sacrificed (exsanguination under pentobarbital anesthesia, 45 mg/kg i.p.) and inflammatory parameters (colonoscopy, macroscopy, microscopy, and myeloperoxidase (MPO) activity) were scored to confirm the post-inflammatory state of the animal and to evaluate effects of the compound on mucosal inflammation. Colonic and fecal samples were taken for the assessment of proteolytic activities using selective fluorogenic substrates. Pharmacokinetic experiments were performed in a separate group of rats.
After an overnight fast with free access to water, rats were anesthetized with a mixture of ketamine (35 mg/kg, i.p.) and xylazine (5 mg/kg, i.p.) and placed in a Trendelenburg position. A flexible catheter (18 G, length 4.5 cm) was used to administer a 250 µL TNBS-enema (4 mg in 50% ethanol) or saline in the distal colon of randomized colitis and control rats, respectively, according to previously published protocols. Afterwards, animals were allowed to recover in their own cages with free access to water and food.
The serine protease inhibitor UAMC-00050 (0.1–1.0–2.5–5.0 mg/kg, dissolved in a volume of 200 µL) or its vehicle (5% DMSO in H2O) was delivered colonically using a flexible catheter (18 G, length 4.5 cm) under short-lasting isoflurane anesthesia (5.0% induction, 1.5% maintenance). To prevent expulsion of the enema, animals were held in a Trendelenburg position for 90 s. Doses for intracolonic administration were based on the doses known to be effective via an i.p. administration and adapted afterwards based on preliminary results.
Contractions of the abdominal musculature in response to isobaric colorectal distensions, a nociceptive reflex known as the visceromotor response (VMR), were used to quantify colonic mechanosensitivity in vivo [24, 28]. To this end, 2 Teflon-coated EMG electrodes (AISI 316 stainless steel, ø 0.125 mm, Advent Research Material Ltd., Oxford, UK) were sutured into the abdominal external oblique muscle, in close proximity to the right inguinal ligament and 5 mm apart. Then, the electrodes were tunneled, subcutaneously towards the base of the neck, exteriorized, and fixated with a plastic cap for future access. Rats were single-housed during their 3-day recovery after the surgical procedure to protect the electrodes and plastic cap from damage.
On the day of the VMR experiment, a lubricated balloon (length 5.0 cm) was introduced into the colorectum of the conscious rat and connected to a barostat, allowing phasic isobaric colonic distensions (Distender Series IIR Barostat, G&J Electronics, Toronto, ON, Canada). EMG electrodes were attached to a data acquisition system and a standardized, pressure-controlled phasic distension protocol was used to expand the balloon (20 s distensions of 10–20–30–40–60 mmHg, 4 min interval). […]

In the case of CC(=O)Nc1ccc(OP(=O)(Oc2ccc(NC(C)=O)cc2)C(Cc2ccc(N=C(N)N)cc2)NC(=O)OCc2ccccc2)cc1.Cl (centres unmarked) [UAMC-00050], the “Plasma concentration after intracolonic administration as share of plasma concentration after intravenous administration” value ([1]; 5 min after administration, 5 mg/kg intracolonic versus 1 mg/kg intravenous) is reported as 5.4%, the Plasma concentration ([1]; 30–180 min after administration, lower limit of quantification 5 ng/mL) is reported as “below the lower limit of quantification” and the Plasma concentration ([1]; 5 min after administration, mean ± SEM, n = 5) is reported as 14.1 ± 2.9 ng/mL. For the same compound, the Plasma concentration ([1]; 15 min after administration, mean ± SEM, n = 5) was 10.3 ± 1.3 ng/mL, the “Effects on inflammatory parameters” value [2] was “no effects” and the “Effect on visceral sensitivity (VMR)” value ([3]; control rats, 5.0 mg/kg single intracolonic administration) was “no changes in visceral sensitivity”. The “Effect on visceral sensitivity (VMR)” value ([3]; post-colitis rats, 0.1 mg/kg single intracolonic administration, 30 min before) was “attenuated visceral sensitivity at 30 and 40 mmHg”, the “Effect on visceral sensitivity (VMR)” value ([3]; post-colitis rats, 1.0 mg/kg single intracolonic administration, 30 min before) was “decreased visceral sensitivity at 20 mmHg” and the “Effect on visceral sensitivity (VMR)” value ([3]; post-colitis rats, 2.5 mg/kg single intracolonic administration, 30 min before) was “completely restored sensitivity to normal values”. The “Effect on visceral sensitivity (VMR)” value ([3]; post-colitis rats, 5.0 mg/kg single intracolonic administration, 30 min before) was “VMRs that were even lower than those in control rats” and the “Dose required to obtain complete reversal of visceral hypersensitivity” value ([3]; post-colitis rats, intracolonic) was 2.5 mg/kg.
